Here are results for 58 compounds from the METLIN SMRT retention time set (Domingo-Almenara et al. 2019).

Each structure is given as a SMILES string.

The nature of the series: gradient 5% acetonitrile 3 min, to 50% in 2 min, to 85% in 15 min, held 3 min, 100 µL/min. The note with it: column: Zorbax Extend-C18 2.1 x 50 mm; eluents: water / acetonitrile, 0.1% formic acid. The essentials:
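The mobile phases were water and acetonitrile, each with 0.1% formic acid, pumped at 100 μL/min through a Zorbax Extend-C18 column (2.1 × 50 mm, 1.8 μm). Pure standards were injected as mixtures of ~100 molecules and detected by a quadrupole time-of-flight mass spectrometer in positive and negative ionization mode. Retention time came from computationally picked adduct peaks, each inspected by hand.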
`CN1C(=O)C2(CCN(C(=O)Nc3ccc4c(c3)OCO4)C2)c2ccccc21` (stereo not drawn) displayed an RP-LC retention time of 752 s. Regarding `O=C(NCCc1csc(-c2cccs2)n1)C1CCN(C(=O)Cc2cccc(F)c2)CC1`, the RP-LC retention time was 797 s. The compound `COc1ccc(C(=O)N2CCC3(CC2)NC(=O)c2ccc(F)cc2N3C)cc1OC` returned an RP-LC retention time of 698 s. To `O=C(Nc1cccc2ccc(-n3ccnc3)nc12)c1ccccc1C(F)(F)F` belongs 638 s; to `CCOC(=O)c1c(C)[nH]c(C(=O)N2CCCC(C(=O)NCCC3=CCCCC3)C2)c1C` (stereo not drawn), 893 s; to `COc1ccc([N+](=O)[O-])cc1NC(=O)Cc1ccc(S(C)(=O)=O)cc1`, 695 s.

Regarding `Fc1cccc(CN2CCC(N3CC(OCC4CC4)C34CCCCC4)CC2)c1` (stereo not drawn), the RP-LC retention time came to 588 s.

Turning to `CS(=O)(=O)N1CCC(C(=O)Nc2cccc(F)c2)Oc2ccc(Cl)cc21` (stereo not drawn), the RP-LC retention time is 982 s. Then `CCOc1ccc(NC(=O)C2CC(=O)N(c3ccc4c(c3)CCN4C(C)=O)C2)cc1` (stereo not drawn), with 750 s; and `CCc1cc(=O)oc2cc(C)cc(OC(C)C(=O)N3CCC4(O)CCCCC4C3)c12` (stereo not drawn), with 817 s; and `CCOc1cccc(CN2CCc3nc(N4CCN(c5ccccc5)CC4)ncc3C2)c1`, with 785 s. `COC[C@@H]1CN(Cc2c(OC)cccc2OC)C[C@H]1c1ccncc1` returned an RP-LC retention time of 656 s. Then `O=C(c1ccco1)N1CCN(C(=O)c2cccn2CC(=O)N2CCc3ccccc32)CC1`, with 711 s; and `Cc1nc(OCC(=O)Nc2ccc(Cl)c(Cl)c2)c2ccccc2n1`, with 859 s; and `c1ccc(-c2noc(-c3ccc(NCc4ccc5c(c4)OCO5)nc3)n2)cc1`, with 1110 s. Then `O=c1c2scc(-c3ccc(F)cc3)c2ncn1Cc1cc(=O)n2ccccc2n1`, with 810 s; and `CC1(C(=O)NCc2ccc(F)cc2)CCCN(C(=O)Nc2ccccc2C(F)(F)F)C1` (stereo not drawn), with 949 s. To `O=C(c1ccc(N2C(=O)CCS2(=O)=O)cc1Cl)N1CCN(c2ccccn2)CC1` belongs 583 s; to `O=C(NC1CCN(c2cc(-c3ccccc3)[nH]n2)C1)c1ccoc1` (stereo not drawn), 650 s. Take `CC(C(=O)N1CCN(c2ccccn2)CC1)n1ccc2cc(S(=O)(=O)N3CCCC3)ccc21` (stereo not drawn): the RP-LC retention time is 660 s. `COc1ccc(Cl)cc1S(=O)(=O)N1CCC(C(=O)NCc2ccccn2)CC1` showed an RP-LC retention time of 594 s.

Regarding `COc1cc(OC)c(NC(=O)N2CCc3nc(-c4ccccc4)ncc3C2)cc1Cl`, the RP-LC retention time is 975 s. In turn, `CC(C)c1noc(-c2cccnc2N2CCCN(Cc3cccc(Cl)c3)CC2)n1` came in with an RP-LC retention time of 742 s. Then `CCN(CC)CCNc1ncnc2c1cnn2-c1cccc(Cl)c1`, with 684 s; and `CC(C)CN1Cc2ccccc2-n2ccnc2C12CCN(C(=O)c1ccccc1F)CC2`, with 650 s. Then `CCOc1ccc(CNc2nc3ccncc3n(C(C)C)c2=O)cc1OC`, with 584 s; and `CCOc1ccc(-c2nc(CN(c3ccccc3)S(=O)(=O)c3cccs3)c(C)o2)cc1`, with 1220 s; and `COc1ccc(NC(=O)Cc2csc3nc(-c4cccc(Cl)c4)cn23)cc1`, with 889 s.

Turning to `Cn1nccc1-c1cccc(-c2noc(-c3cccnc3)n2)c1`, the RP-LC retention time came to 876 s.

Take `COc1cccc(CC(=O)N2CCc3nc[nH]c3C2)c1`: the RP-LC retention time stood at 572 s. To `Cc1ccc(CNC(=O)N2CCN(Cc3c(C)noc3C)CC2)cc1` belongs 611 s; to `COc1ccccc1NC(=O)N1CCC2(CC1)NC(=O)c1ccc(Cl)cc1N2`, 775 s.

As for `CCOC(=O)c1cc(C2CC2)nc2c1c(=O)n(Cc1cccc(Cl)c1)c(=O)n2C`, the RP-LC retention time came to 1200 s. On to `Cc1nc(-c2ccccc2)cc2nn(CC(=O)NC(C)CCc3ccccc3)c(=O)n12` (stereo not drawn), for which the RP-LC retention time amounted to 989 s. The compound `CN1C(=O)COc2ccc(-c3csc(NC(=O)C4CCCO4)n3)cc21` (stereo not drawn) yielded an RP-LC retention time of 762 s. For `Cc1c(Cl)cccc1NS(=O)(=O)c1cc(-c2nc(C(C)(C)C)cs2)cs1`, the RP-LC retention time was 1340 s. The compound `COc1ccc(-c2cc(N3CCC(NC(=O)c4ccc(F)cc4F)C3)n[nH]2)cc1` (stereo not drawn) came in with an RP-LC retention time of 696 s. `COC[C@@H]1CN(c2cnccn2)C[C@H]1C(=O)NCCn1cccn1` had an RP-LC retention time of 564 s.

`O=S(=O)(c1ccc(-c2noc(-c3ccccc3Br)n2)cc1)N1CCCC1` gave an RP-LC retention time of 1220 s. `CC(=O)Nc1ccc(-c2cc(C(=O)N3CCN(c4ccccn4)CC3)c3ccccc3n2)cc1` displayed an RP-LC retention time of 609 s. Compound `Cc1nc(-c2cc(S(=O)(=O)Nc3cccc(Cl)c3C)c(C)s2)cs1` showed an RP-LC retention time of 1120 s. Compound `CNC(=O)c1c2c(nc3ccccc13)CCC2` registered an RP-LC retention time of 542 s. `Cc1ccc(CNC(=O)Cc2csc3nc(-c4ccc(C)c(C)c4)cn23)cc1`: the RP-LC retention time stood at 896 s. To `O=C(N[C@@H]1CN(c2ncccn2)C[C@H]1CO)C1(c2ccccc2)CC1` belongs 654 s. To `Cc1ccc(NC(=O)Nc2nc(C(=O)Nc3ccc4c(c3)OCO4)cs2)cc1` belongs 852 s. Then `Cc1cnc(C(=O)NC2C[C@H]3CC[C@@H](C2)N3S(=O)(=O)c2c(C)noc2C)cn1` (stereo partly drawn), with 726 s; and `CC(C)c1ccc(N2C(=O)C3N=NN(Cc4nc(-c5ccc(Br)cc5)no4)C3C2=O)cc1` (stereo not drawn), with 1220 s. `Cc1ccc(C)c(Cn2nc(-c3nc(C)no3)ccc2=O)c1` returned an RP-LC retention time of 916 s. To `COC(=O)c1ncn2c1C(=O)N(Cc1ccc(F)cc1)C(C)(C(=O)NCc1ccccc1)C2` (stereo not drawn) belongs 714 s. To `Cc1cc(NC(=O)c2ccc(-c3cncnc3)nc2)ccc1Br` belongs 859 s; to `CCc1onc(C)c1C1CCCN1C(=O)c1c(Cl)cnn1CC` (stereo not drawn), 773 s; to `COc1cc(CN2CCc3nc(N4CCCC4)ncc3C2)ccc1OC(C)C`, 641 s. In the case of `COCCN1C(=O)c2ccccc2C(C(=O)Nc2ccccc2OC)C12CCCC2` (stereo not drawn), the RP-LC retention time was determined as 905 s.

Take `CCOc1ccccc1CNC(=O)c1c(C)sc2ccn(CC)c(=O)c12`: the RP-LC retention time is 893 s.

Regarding `O=C(NCC1CCCO1)c1nc(-c2ccnc(N3CCCC3)c2)no1` (stereo not drawn), the RP-LC retention time was 597 s. Turning to `COc1ccc2nc3oc(C(=O)NCCc4ccsc4)cc3cc2c1`, the RP-LC retention time is 901 s. In turn, `O=C(NCCc1ccc(Cl)cc1)c1nnc(-c2ccc(S(=O)(=O)N3CCCC3)cc2)o1` showed an RP-LC retention time of 1010 s. As to `Cc1cc(C(=O)N2CCN(c3ccc(-c4cccs4)nn3)CC2)no1`, the RP-LC retention time stood at 659 s.
